Data set [1] relates to male Wistar rats. As to the kind of experiment: Vogel lick-conflict (drinking conflict) test. In kind it is in vivo, rat. Conditions: intraperitoneally, 30 min prior to test; number of tolerated shocks. The method, then: Experiments were performed in a PC operated system (LIIKOSYS, Experimetria, Hungary) consisted of 8 test chambers (20 cm×20 cm×20 cm Plexiglas boxes) each of which was equipped with a water fountain system mounted at appropriate height on the wall of the chamber and metal grid floor for delivering electric shocks. 160-180 g male Wistar rats (N═8) were deprived of drinking water 48 h and fasted for 24 h prior to test. Test and reference compounds or vehicle were administered intraperitoneally, 30 min prior to test. All procedures were carried out in a quiet, air-conditioned room between 07:30 and 13:00 h at an ambient temperature of 23±2° C. At the beginning of the test the animals were placed in the test chamber where they had free access to drinking water for a 30 s grace period. After that, electric shocks (600 μA, 0.6 s) were applied through the drinking spout following every 20 licks during the 5 min test period (Vogel et al, 1971). Number of punished licks were recorded and stored by an IBM compatible computer. Means±SEM of numbers of tolerated shocks were calculated in each group, statistical analysis of data was performed by one way ANOVA followed by Duncan's test (STATISTICA). Diazepam [7-chloro-1,3-dihydro-1-methyl-5-phenyl-2H-1,4-benzodiazepine-2-one] was used as the reference substance.

A further data set deals with Male Sprague-Dawley rats. Briefly: Elevated plus-maze test in rats. In kind it is in vivo, rat. The following applies: 60 min after treatment, minimal effective dose regarding time spent in the open arms. The text has this: Test have been performed as described by Pellow and co-workers [J.Neurosci. Methods, 14, 149 (1985)]. A wooden cross, 15 cm wide with 100 cm long arms was used for the experiments. The sides and ends of two opposite arms of the cross were equipped with 40 cm high walls, however, the arms were open to the […] central area (closed arms). The two other opposite arms were not encircled by walls (open arms).
Male Sprague-Dawley rats weighing 200-220 g were used for the experiments. The animals were placed in the central area of the equipment 60 min after treatment and the following four parameters have been observed for the 5 min test time: • time spent in the open arms, • time spent in the closed arms, • number of entries into the open arms, • number of entries into the closed arms.
The effect was expressed as percent increase in either the time (measured in sec) spent in the open arms or number of entries into the open arms. MEDs (minimal effective dose) were determined for each compound regarding the time spent in the open arms
Buspirone [8-{4-[4-(2-pyrimidinyl)-1-piperazinyl]butyl}-8-azaspiro[4,5]decane-7,9-dione] was used as the reference substance.

The subject of another data set is mouse. Briefly: Inhibition of spontaneous motor activity (Dews instrument). In kind it is in vivo. Conditions: per os, 60 min before test, 30 min recording; sedative effect. The method, then: The effect on spontaneous motor activity was investigated according to Borsy and co-workers [Borsy, J. et al, Arch. Int. Pharmacodyn., 124, 180-190 (1960)] in a ten channel Dews instrument, with 1-1 animal in each channel. Animals were placed into the instrument 60 min after per os treatment with either vehicle or test compound, and interruptions of infrared beams were recorded for 30 min. […] Diazepam was used as the reference substance.

For data set [2], the system named is male Wistar rats. Briefly: Effects on blood pressure in conscious, freely moving rats (radiotelemetry). Type of data set: in vivo, rat. The text has this:
A 7 day postoperative recovery period was allowed.
None of the compounds examined reduced blood pressure of the test animals.

This note sets out measurements from patent US20050043314A1, “Substituted alkylaminopyridazinone derivatives, process for the preparation thereof and pharmaceutical composition containing the same” (priority 2001, published 2005).

Bounds are passed on as bounds.

With “5-{2-[4-(methoxytrifluoromethylphenyl)-piperazine-1-yl]-ethylamino}-2H-pyridazine-3-one trihydrochloride [Example 1]”, the “MED in mg/kg ip.” value with male Wistar rats [1] came out at 20.0 mg/kg.
Take `O=c1cc(NCCN2CCN(c3ccccn3)CC2)cn[nH]1` [Example 4, 5-[2-(4-pyridin-2-ylpiperazine-;1-yl)ethylamino]-2H-pyridazine-3-one]: in the data set with male Wistar rats [1], the “MED in mg/kg ip.” value is given as 10.0 mg/kg.
Consider `O=c1cc(NCCN2CCN(c3ccccc3)CC2)cn[nH]1` [Example 3, 5-{2-[4phenylpiperazine-1-yl]ethylamino}2H-pyridazine-3-one], for which the melting point – broadly, the temperature of the solid-liquid transition – fell in the range of 147 to 149 °C. The “MED in mg/kg ip.” value with male Wistar rats [1] was determined as 5.0 mg/kg. The “MED in mg/kg po.” value in the data set on Male Sprague-Dawley rats was 0.1 mg/kg. Also, the “ID50 in mg/kg po.” value with mouse worked out at 60.0 mg/kg.
In the case of `O=c1cc(NCCN2CCN(c3ccccc3F)CC2)cn[nH]1` [Example 2, 5-{2-[4-(2-fluorophenyl)piperazine-1-yl]ethyl-amino}-2H-pyridazine-3-one], the melting point was in the range of 103 to 105 °C. The “MED in mg/kg ip.” value with male Wistar rats [1] is on record as 20.0 mg/kg. Moreover, in the data set with mouse, the “ID50 in mg/kg po.” value is reported as 21.0 mg/kg.
On to `O=c1cc(NCCN2CCN(c3ncccn3)CC2)cn[nH]1` [Example 5, 5-[2-(4-pyrimidin-2-ylpiperazine-1-yl)ethylamino]-2H-pyridazine-3-one], for which the melting point was 199 to 201 °C. Besides, the “MED in mg/kg ip.” value in the data set on male Wistar rats [1] is recorded as 20.0 mg/kg. In the data set with mouse, the “ID50 in mg/kg po.” value was more than 100.0 mg/kg.
Take `CN1C(=O)CN=C(c2ccccc2)c2cc(Cl)ccc21` [Diazepam, 7-chloro-1,3-dihydro-1-methyl-5-phenyl-2H-1,4-benzodiazepine-2-one, reference compound]: in the data set with male Wistar rats [1], the “MED in mg/kg ip.” value stood at 5.0 mg/kg. For the same compound, in the data set with mouse, the “ID50 in mg/kg po.” value is on record as 7.0 mg/kg.
`O=c1cc(NCCN2CCN(c3ccc(F)cc3)CC2)cn[nH]1` [Example 7, 5-{2-[4-(4-fluorophenyl)piperazine-1-yl]ethyl-amino]-2H-pyridazine-3-one]: the melting point fell in the range of 96 to 98 °C. The “Results of statistical evaluation” value in the data set with male Wistar rats [2] (blood pressure compared to placebo, N.S. = Not significant statistically, two-way ANOVA with Scheffe's post hoc test) is “N.S”. The “Mean blood pressure after treatment with test compound, Mean” value in the data set with male Wistar rats [2] (mean arterial blood pressure for 6 hours after oral treatment, conscious rats) came out at 92.7 mmHg. The “MED in mg/kg ip.” value with male Wistar rats [1] amounted to 20.0 mg/kg.
